# Tests used:
# Type in all cases: cell-based
# Microsporum canis = test: Antifungal activity in vitro, resazurin growth inhibition: Microsporum canis (B68128)
# Procedure: (§1) The standard susceptibility screen is performed in 96-well plates (U-bottom, Greiner Bio-One). Serial dilutions (2-fold or 4-fold) of 20 mM compound stock solutions are made in 100% DMSO, followed by an intermediate dilution step in water. These serial dilutions (10 μl) are then spotted onto test-plates that can be stored in the dark at 4° C. for a maximum period of 2 weeks. An adequate broad dose-range is included with 64 μM as the highest in-test concentration. The culture medium RPMI-1640 is supplemented with L-glutamine, 2% glucose and buffered with 3-(N-morpholino)-propanesulfonic acid (MOPS) at pH 7.0±0.1.
# (§2) The different fungal species/isolates (Table 3a) are cryopreserved and 1/1000 diluted in medium just prior to use. A standard inoculum of 200 μl containing 10^3 colony-forming unit (cfu) is then added to each well. A positive control (100% growth=fungal culture without antifungal) and a negative control (0% growth ═RPMI-MOPS medium) are included on each plate. Optimal incubation time and temperature are dependent on the fungal species and vary from 24 h for yeasts (37° C.) to one week or more for dermatophytes (27° C.). Inhibition of fungal growth is measured after adding 10 μl of 0.005% (w/v) resazurin (Sigma Aldrich) to each well, based on the principle that living cells convert the non-fluorescent blue resazurin into the pink and fluorescent resorufin, allowing fluorimetric reading (λex 550 nm and λem 590 nm) after an additional incubation period (‘resa’ time mentioned in Table 3a).
# [1] = system: Trichophyton mentagrophytes; test: Antifungal activity in vitro, resazurin growth inhibition: Trichophyton mentagrophytes (B70554)
# Procedure: as §1, §2
# Trichophyton rubrum = test: Antifungal activity in vitro, resazurin growth inhibition: Trichophyton rubrum (B68183)
# Procedure: as §1, §2
# Sporothrix schenkii = test: Antifungal activity in vitro, resazurin growth inhibition: Sporothrix schenkii (B62482)
# Procedure: as §1, §2
# Aspergillus fumigatus = test: Antifungal activity in vitro, resazurin growth inhibition: Aspergillus fumigatus (B42928)
# Procedure: as §1, §2
# Candida parapsilosis = test: Antifungal activity in vitro, resazurin growth inhibition: Candida parapsilosis (B66126)
# Procedure: as §1, §2
# Cryptococcus neoformans = test: Antifungal activity in vitro, resazurin growth inhibition: Cryptococcus neoformans (B66663)
# Procedure: as §1, §2
SMILES,"Inf. B: Microsporum canis B68128, pIC50 (Microsporum canis)","Inf. G: Trichophyton mentagrophytes B70554, pIC50 [1]","Inf. C: Trichophyton rubrum B68183, pIC50 (Trichophyton rubrum)","Inf. A: Sporothrix schenkii B62482, pIC50 (Sporothrix schenkii)","Inf. E: Aspergillus fumigatus B42928, pIC50 (Aspergillus fumigatus)","Inf. D: Candida parapsilosis B66126, pIC50 (Candida parapsilosis)","Inf. F: Cryptococcus neoformans B66663, pIC50 (Cryptococcus neoformans)"
Br.CCn1ccc(C2NCc3c(Cl)cccc3-n3cccc32)n1 (racemic) [Compound 10],4.25,<4.19,<4.19,<4.19,<4.19,<4.19,<4.19
Clc1cccc2c1CNC(c1ccccn1)c1cccn1-2 (racemic) [Compound 11],4.73,4.72,4.71,4.49,4.31,<4.19,4.93
Cc1cccc(C2NCc3c(Cl)cccc3-n3cccc32)n1 (racemic) [Compound 12],<4.49,<4.49,4.92,4.59,<4.49,<4.49,4.82
CCc1ccc(C2NCc3c(Cl)cccc3-n3cccc32)nc1.Cl (racemic) [Compound 13],5.40,5.00,5.70,<4.19,<4.19,<4.19,4.52
CCc1ccc(C2NCc3c(Cl)cccc3-n3cccc32)cn1.Cl (racemic) [Compound 14],5.30,4.74,5.30,<4.19,<4.19,<4.19,4.28
Cl.FC(F)(F)c1ccc(C2NCc3ccccc3-n3cccc32)cn1 (racemic) [Compound 15],4.25,4.56,4.70,<4.19,<4.19,<4.19,4.92
Cl.FC(F)(F)c1ccc(C2NCc3c(Cl)cccc3-n3cccc32)cn1 (racemic) [Compound 16],5.19,5.28,5.69,<4.19,<4.19,<4.19,4.64
Cl.Fc1cccc2c1CNC(c1ccc(C(F)(F)F)nc1)c1cccn1-2 (racemic) [Compound 17],4.46,<4.19,4.71,<4.19,<4.19,<4.19,4.23
Cc1cccc2c1CNC(c1ccc(C(F)(F)F)nc1)c1cccn1-2.Cl (racemic) [Compound 18],5.05,4.62,5.52,<4.19,<4.19,<4.19,<4.19
Cl.FC(F)(F)c1ccc(C2NCc3c(Cl)cc(Cl)cc3-n3cccc32)cn1 (racemic) [Compound 19],4.95,4.57,5.65,<4.19,<4.19,<4.19,5.02
Br.Clc1cccc2c1CNC(c1ccncc1)c1cccn1-2 (racemic) [Compound 21],5.04,,5.52,4.70,<4.19,<4.19,4.66
Br.Clc1ccc2c(c1)CNC(c1ccncc1)c1cccn1-2 (racemic) [Compound 22],5.22,,5.10,<4.19,<4.19,<4.19,4.32
Br.Clc1ccc2c(c1)-n1cccc1C(c1ccncc1)NC2 (racemic) [Compound 23],4.72,4.39,5.00,<4.19,<4.19,<4.19,4.57
Br.Clc1cccc2c1-n1cccc1C(c1ccncc1)NC2 (racemic) [Compound 24],4.57,<4.19,4.74,<4.19,<4.19,<4.19,<4.19
Cc1ncc(C2NCc3c(Cl)cccc3-n3cccc32)cn1.Cl (racemic) [Compound 25],4.43,<4.19,4.19,<4.19,<4.19,<4.19,<4.19
Cl.FC(F)(F)c1ncc(C2NCc3c(Cl)cccc3-n3cccc32)cn1 (racemic) [Compound 26],4.92,4.44,5.10,<4.19,<4.19,<4.19,<4.19
Cc1ccc(Cl)c2c1-n1cccc1C(c1cnc(C(F)(F)F)nc1)NC2.Cl (racemic) [Compound 27],<4.90,<4.90,<4.90,<4.90,<4.90,<4.90,<4.90
Cl.FC(F)(F)c1ccc(C2NCc3c(Cl)cccc3-n3cccc32)nn1 (racemic) [Compound 28],4.29,4.28,4.43,<4.19,<4.19,<4.19,<4.19
Cl.c1ccc2c(c1)CNC(c1cc3ccccc3o1)c1cccn1-2 (racemic) [Compound 29],5.30,5.30,5.70,<4.19,<4.19,<4.19,4.80
Cl.Clc1cc(Cl)c2c(c1)-n1cccc1C(c1cc3ccccc3o1)NC2 (racemic) [Compound 31],5.59,4.87,5.31,<4.19,<4.19,<4.19,<4.19
Cc1cccc2c1CNC(c1cc3ccccc3o1)c1cccn1-2.Cl (racemic) [Compound 32],5.70,5.70,6.10,4.35,<4.19,<4.19,4.39
Clc1cccc2c1CN=C(c1ccc3nc[nH]c3c1)c1cccn1-2 [Compound 205],,<4,<4,<4,<4,<4,<4

# Reference: patent publication US9493468B2, “Antifungal 5,6-dihydro-4H-pyrrolo[1,2-a][1,4]benzo-diazepines and 6H-pyrrolo[1,2-a][1,4]benzodiazepines substituted with heterocyclic derivatives” (Janssen Pharmaceutica NV, priority 2011, dated 2016)
